Laboratory results as given in patent US20060211606A1, “Peptides” (priority 2005, published 2006).

Legend:
[1] = tested on: Human Skeletal Muscle Myoblasts (HSMM); experiment: HSMM proliferation, BrdU incorporation; type: cell-based; conditions: 48 hours; A5 significant (P<0.1) at doses of 10 ng/ml and below; IGF-I alone 0.1, 10 and 100 ng/ml
Procedure: (A) Peptide A5: HSMM cells at 500 cells/well. Cultivation was carried out for 24 hours in 10% FCS, followed by two washes in serum free medium, stimulation for 48 hours and then treatment with BrdU for 5 hours. Concentrations of 0.1, 1, 10, 100 and 500 ng/ml of peptide A5 were tested, along with 0.1, 1, 10 and 100 ng/ml IGF-I. BrdU incorporation was measured to assess the level of cell proliferation achieved. Controls containing medium only, no cells (BLK), background staining (BG) and 10% FBS were also provided. Values on the Y-axis are for fluorescence (absorbence at 370 nm; mean plus standard error across 4 wells). The first five columns relate to peptide A5 at concentrations of 0.1, 1, 10, 100 and 500 ng/ml. The next column relates to the control containing medium only. The next three relate to IGF-I (See Example 1.5) alone at concentrations of 100, 10 and 0.1 ng/ml. The next three relate to controls containing 10% FBS, background staining and no cells respectively. * means P<0.05 compared to medium only control.
(§1) (B) Peptide AS: HSMM cells at 500 cells/well. […] Concentrations of 0.1, 1, 10, 100 and 500 ng/ml of peptide AS in combination with 2 ng/ml IGF-I were tested, along with 0.1, 1, 10 and 100 ng/ml IGF-I. BrdU incorporation was measured to assess the level of cell proliferation achieved. […] Values on the Y-axis are for fluorescence (absorbence at 370 nm; mean plus standard error across 4 wells). […]
as §1, with “(A)” for “(B)”, “AS” for “AS in combination with 2 ng/ml IGF-I”
(B) Peptide A5: HSMM cells at 500 cells/well. […] Concentrations of 0.1, 1, 10, 100 and 500 ng/ml of peptide AS in combination with 2 ng/ml IGF-I were tested, along with 0.1, 1, 10 and 100 ng/ml IGF-I. BrdU incorporation was measured to assess the level of cell proliferation achieved. […]

C2C12 muscle cells = experiment: C2C12 proliferation, Alamar Blue assay; type: cell-based, mouse; conditions: 2000 cells per well; 2, 5, 50 and 100 ng/ml; medium with IGF-I 2 ng per ml; 36 hours
Procedure: (A) DMGF and CMGF Peptides: C2C12 Cells were provided at 2000 cell/well, in a medium containing DMEM (1000 mg/L glucose), plus BSA(100 ug/ml), plus IGF-I (2 ng per ml) and incubated for 36 hours. Cell proliferation was then assessed using an Alamar Blue assay. […] Y-axis values are fluorescence (wavelength of excitation 535 nm, measurement at 590 nm; mean plus standard error) in an Alamar Blue assay.
The 8 amino acid peptides described in 1.3.1 above and referred to in FIG. 8A as DMGF and CMGF were tested for the ability to induce proliferation of C2C12 muscle cells at a density of 2000 cells per well in a medium containing DMEM (1000 mg/L glucose), BSA (10 ug/ml) and IGF-I (2 ng per ml). Concentrations of 2, 5, 50 and 100 ng/ml of DMGF and CMGF were tested (See the left-hand and middle sets of results in FIG. 8), along with 2, 5, 50 and 100 ng/ml IGF-I alone (See the right-hand set of results in FIG. 8). After 36 hours incubation, an Alamar Blue assay was used to assess the level of cell proliferation achieved. A control containing only the medium was also provided.

IGF-I: IGF-I receptor binding domain encoded by Exons 3 and 4, common to all splice variants, approximately 70 amino acids [reference compound]
proliferation of HSMM (BrdU incorporation), used in isolation [1]: no significant effect
proliferation of C2C12 cells (Alamar Blue fluorescence) (C2C12 muscle cells): statistically different to the control value
